In brackets after ≈: the same amount, converted by molar mass. Read-outs that look alike come from different tables or passages of the source. Starred links: 1 amine or outer side, 2 acyl side, 3 side chain; linkers in the order of their positions; H or OH if unused. Positions of bridges follow the written chain, without caps; N, C: chain ends. Residues, ends and D or L forms follow the SMILES beside them. *: point of attachment. C20 diacid = O=C(O)CCCCCCCCCCCCCCCCCCC(=O)*; γGlu = O=C(O)[C@H](CCC(=O)[*:2])N[*:1]
Assays:
[1] = target: T1, human calcitonin receptor (Homo sapiens, UniProt P30988); test: Assay (II)a functional CRE-luciferase assay, human calcitonin receptor; format: cell-based; conditions: Table 7; human calcitonin (CTa) receptor
T1 construct: expressed in transfected cells; host or cells: BHK570
T1 sequence (P30988 25-474): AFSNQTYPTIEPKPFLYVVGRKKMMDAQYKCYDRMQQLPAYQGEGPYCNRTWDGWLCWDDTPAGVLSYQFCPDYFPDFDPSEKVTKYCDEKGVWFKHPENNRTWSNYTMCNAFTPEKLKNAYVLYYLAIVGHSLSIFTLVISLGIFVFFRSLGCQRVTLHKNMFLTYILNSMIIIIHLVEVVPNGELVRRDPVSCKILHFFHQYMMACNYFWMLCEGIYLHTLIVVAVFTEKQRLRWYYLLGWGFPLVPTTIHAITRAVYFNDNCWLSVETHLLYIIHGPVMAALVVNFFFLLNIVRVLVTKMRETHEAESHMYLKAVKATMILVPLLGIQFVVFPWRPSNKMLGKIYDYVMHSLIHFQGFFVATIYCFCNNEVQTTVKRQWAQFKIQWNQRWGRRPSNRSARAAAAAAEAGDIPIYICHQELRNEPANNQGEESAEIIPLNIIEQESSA

[2] = Assay (III) ThT fibrillation assay for physical stability; format: physicochemical; conditions: ThT fibrillation assay
Source text: ASSAY (III)—ThT Fibrillation Assays for the Assessment of Physical Stability of Protein formulations Low physical stability of a polypeptide may lead to amyloid fibril formation, which is observed as well-ordered, thread-like macromolecular structures in the sample eventually resulting in gel formation. This has traditionally been measured by visual inspection of the sample. However, that kind of measurement is very subjective and depending on the observer. Therefore, the application of a small molecule indicator probe is much more advantageous. Thioflavin T (ThT) is such a probe and has a distinct fluorescence signature when binding to fibrils [Naiki et al. (1989) Anal. Biochem. 177, 244-249; LeVine (1999) Methods. Enzymol. […], 274-284]. The time course for fibril formation can be described by a sigmoidal curve with the following expression [Nielsen et al. (2001) Biochemistry 40, 6036-6046]: [formula] Here, F is the ThT fluorescence at the time t. The constant t0 is the time needed to reach 50% of maximum fluorescence. […] Few of those intermediates nucleate to form a template onto which further intermediates may assembly and the fibrillation proceeds. The lag-time corresponds to the interval in which the critical mass of nucleus is built up and the apparent rate constant is the rate with which the fibril itself is formed. Sample Preparation Samples were prepared freshly before each assay. Each sample composition is described in each example. The pH of the sample was adjusted to the desired value using appropriate amounts of concentrated NaOH and HClO4 or HCl. Thioflavin T was added to the samples from a stock solution in H2O to a final concentration of 1 μM. Sample aliquots of 200 μl were placed in a 96 well microtiter plate (Packard OptiPlate™-96, white polystyrene). Usually, four or eight replica of each sample (corresponding to one test condition) were placed in one column of wells. The plate was sealed with Scotch Pad (Qiagen). Incubation and Fluorescence Measurement Incubation at given temperature, shaking and measurement of the ThT fluorescence emission were done in a Fluoroskan Ascent FL fluorescence platereader or Varioskan platereader (Thermo Labsystems). The temperature was adjusted to 37° C. The orbital shaking was adjusted to 960 rpm with an amplitude of 1 mm in all the presented data. Fluorescence measurement was done using excitation through a 444 nm filter and measurement of emission through a 485 nm filter. Each run was initiated by incubating the plate at the assay temperature for 10 min. The plate was measured every 20 minutes for a desired period of time. Between each measurement, the plate was shaken and heated as described. Data Handling The measurement points were saved in Microsoft Excel format for further processing and curve drawing and fitting was performed using GraphPad Prism. The background emission from ThT in the absence of fibrils was negligible. The data points are typically a mean of four or eight samples and shown with standard deviation error bars. Only data obtained in the same experiment (i.e. samples on the same plate) are presented in the same graph ensuring a relative measure of fibrillation between experiments. The data set may be fitted to Eq. (1). However, since full sigmodial curves in this case are not always achieved during the measurement time, the degree of fibrillation is expressed as ThT fluorescence tabulated as the mean of the samples and shown with the standard deviation at various time points. Measurement of Initial and Final Concentrations The polypeptide concentration in each of the tested formulations were measured both before application in the ThT fibrillation assay (“Initial”) and after completion of the ThT fibrillation (“After ThT assay”). Concentrations were determined by reverse HPLC methods using a pramlintide standard as a reference. Before measurement after completion 150 μl was collected from each of the replica and transferred to an Eppendorf tube. […]

[3] = target: T2, human amylin receptor (amylin 3(a) receptor: human calcitonin receptor + RAMP-3) (Homo sapiens, UniProt O60896+P30988); test: Assay (II)a functional CRE-luciferase assay, human amylin receptor; format: cell-based
T2 construct: expressed in transfected cells; host or cells: BHK570
T2 sequence (P30988 25-474): T1 sequence (P30988 25-474)
T2 sequence (O60896 24-148 partner): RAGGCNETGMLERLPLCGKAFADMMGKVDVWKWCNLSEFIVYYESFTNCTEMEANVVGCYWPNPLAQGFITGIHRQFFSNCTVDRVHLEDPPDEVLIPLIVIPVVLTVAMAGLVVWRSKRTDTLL

[4] = Assay (IV) determination of solubility; format: physicochemical
In short: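 Stock ~500 nmol/ml in water; 1:1 with 100 mM buffer, pH 3.0–8.0 (glycylglycine ≤5.0, bistrispropane ≥6.0); 18 h RT; spin; HPLC quantitation of soluble polypeptide.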

[5] = bistrispropane buffer, pH 6, pH 6.0, read-out: Solubility pH 6.0
[6] = bistrispropane buffer, pH 7.5, pH 7.5, read-out: Solubility pH 7.5
[7] = bistrispropane buffer, pH 8, pH 8.0, read-out: Solubility pH 8.0
[8] = glycylglycine buffer, pH 3, pH 3.0, read-out: Solubility pH 3.0
[9] = glycylglycine buffer, pH 4, pH 4.0, 18 hours at room temperature, Table 2, read-out: Solubility pH 4.0
[10] = glycylglycine buffer, pH 4, pH 4.0, read-out: Solubility pH 4.0
[11] = Table 2, BHK amylin 3(a)-receptor/CRE-luc cells

EC50 [1] [nM] | ThT pH 4.0 lag time [2] [h] | ThT pH 4.0 lag time (h) [2] [h] | EC50 ([3]; Table 5) [nM] | solubility at 18 h [4, 5] [µM] | solubility at 18 h ([4]; bistrispropane buffer, pH 6.5, pH 6.5, read-out: Solubility pH 6.5) [µM] | solubility at 18 h ([4]; bistrispropane buffer, pH 7, pH 7.0, 18 hours at room temperature, Table 3, read-out: Solubility pH 7.0) [µM] | solubility at 18 h ([4]; bistrispropane buffer, pH 7, pH 7.0, read-out: Solubility pH 7.0) [µM] | solubility at 18 h [4, 6] [µM] | solubility at 18 h [4, 7] [µM] | solubility at 18 h [4, 8] [µM] | solubility at 18 h [4, 9] [µM] | solubility at 18 h [4, 10] [µM] | EC50 [3, 11] [nM] | solubility at 18 h ([4]; glycylglycine buffer, pH 5, pH 5.0, read-out: Solubility pH 5.0) [µM] | solubility at 18 h ([4]; pH 6.5, read-out: Solubility pH 6.5) [µM] | solubility at 18 h ([4]; pH 7.0, read-out: Solubility pH 7.0) [µM] | Structure (SMILES)
0.168 | >45 | >45 | 0.066 | – | – | – | – | – | – | – | – | – | – | – | – | – | CC[C@H](C)[C@H](NC(=O)[C@@H]1CCCN1C(=O)CNC(=O)[C@H](Cc1ccccc1)NC(=O)[C@H](CC(N)=O)NC(=O)[C@H](CC(N)=O)NC(=O)[C@H](CO)NC(=O)[C@H](CO)NC(=O)[C@H](Cc1c[nH]cn1)NC(=O)[C@H](CCCNC(=N)N)NC(=O)[C@H](CC(C)C)NC(=O)[C@H](Cc1ccccc1)NC(=O)[C@H](CCC(=O)O)NC(=O)[C@H](C)NC(=O)[C@H](CC(C)C)NC(=O)[C@H](CCCNC(=N)N)NC(=O)[C@H](CCC(N)=O)NC(=O)[C@@H](NC(=O)[C@H](C)NC(=O)[C@@H]1CSSC[C@H](NC(=O)[C@H](CCCNC(=N)N)NC(=O)[C@H](CCC(=O)O)NC(=O)CC[C@H](NC(=O)CCCCCCCCCCCCCCCCCCC(=O)O)C(=O)O)C(=O)N[C@@H](CC(N)=O)C(=O)N[C@@H]([C@@H](C)O)C(=O)N[C@@H](C)C(=O)N[C@@H]([C@@H](C)O)C(=O)N1)[C@@H](C)O)C(=O)N[C@@H](CC(C)C)C(=O)N1CCC[C@H]1C(=O)N1CCC[C@H]1C(=O)N[C@H](C(=O)N[C@@H](CC(N)=O)C(=O)N[C@H](C(=O)NCC(=O)N[C@@H](CO)C(=O)N[C@@H](CC(N)=O)C(=O)N[C@H](C(=O)N1CCC[C@H]1C(N)=O)[C@@H](C)O)C(C)C)[C@@H](C)O [Example 156, N-alpha-[(S)-4-Carboxy-4-(19-carboxynonadecanoylamino)butyryl]-Glu-[Arg1,Glu14,Arg17,Pro37]-pramlintide] ({C20 diacid-γGlu}-ERCNTATCATQRLAEFLRHSSNNFGPILPPTNVGSNTP-NH2; disulfide 3-8 (inferred))
0.284 | – | – | – | 42 (≈ 180 µg/mL) | 82 (≈ 351 µg/mL) | 146 (≈ 624 µg/mL) | 146 (≈ 624 µg/mL) | 183 (≈ 782 µg/mL) | 190 (≈ 812 µg/mL) | > 200 | 120 (≈ 513 µg/mL) | 120 (≈ 513 µg/mL) | 0.253 | – | – | – | CC[C@H](C)[C@H](NC(=O)[C@@H]1CCCN1C(=O)CNC(=O)[C@H](Cc1ccccc1)NC(=O)[C@H](CCC(N)=O)NC(=O)[C@H](CCC(N)=O)NC(=O)[C@H](CO)NC(=O)[C@H](CO)NC(=O)[C@H](CCCNC(=N)N)NC(=O)[C@H](Cc1c[nH]cn1)NC(=O)[C@H](CC(C)C)NC(=O)[C@H](Cc1ccccc1)NC(=O)[C@H](CCC(=O)O)NC(=O)[C@H](C)NC(=O)[C@H](CC(C)C)NC(=O)[C@H](CCCNC(=N)N)NC(=O)[C@H](CCC(N)=O)NC(=O)[C@@H](NC(=O)[C@H](C)NC(=O)[C@@H]1CSSC[C@H](NC(=O)CC[C@H](NC(=O)CCCCCCCCCCCCCCCCCCC(=O)O)C(=O)O)C(=O)NCC(=O)N[C@@H]([C@@H](C)O)C(=O)N[C@@H](C)C(=O)N[C@@H]([C@@H](C)O)C(=O)N1)[C@@H](C)O)C(=O)N[C@@H](CC(C)C)C(=O)N1CCC[C@H]1C(=O)N1CCC[C@H]1C(=O)N[C@H](C(=O)N[C@@H](CCC(=O)O)C(=O)N[C@H](C(=O)NCC(=O)N[C@@H](CO)C(=O)NCC(=O)N[C@H](C(=O)N[C@@H](Cc1ccc(O)cc1)C(N)=O)[C@@H](C)O)C(C)C)[C@@H](C)O [Example 4, N-alpha-[(S)-4-Carboxy-4-(19-carboxynonadecanoylamino)butyryl]-[des1,Gly3,Glu14,His17,Arg18,Gln21,Gln22,Glu31,Gly35]-pramlintide] ({C20 diacid-γGlu}-CGTATCATQRLAEFLHRSSQQFGPILPPTEVGSGTY-NH2; disulfide 1-6 (inferred))
0.24 | – | – | – | 12 (≈ 53.1 µg/mL) | – | – | – | 18 (≈ 79.6 µg/mL) | 48 (≈ 212 µg/mL) | > 200 | 163 (≈ 721 µg/mL) | 163 (≈ 721 µg/mL) | 0.115 | 168 (≈ 743 µg/mL) | 4 (≈ 17.7 µg/mL) | 7 (≈ 31 µg/mL) | CC(C)C[C@H](NC(=O)[C@H](CCCNC(=N)N)NC(=O)[C@H](CCC(N)=O)NC(=O)[C@@H](NC(=O)[C@H](C)NC(=O)[C@@H]1CSSC[C@H](NC(=O)[C@H](Cc2cnc[nH]2)NC(=O)CC[C@H](NC(=O)CCCCCCCCCCCCCCCCCCC(=O)O)C(=O)O)C(=O)N[C@@H](CC(N)=O)C(=O)N[C@@H]([C@@H](C)O)C(=O)N[C@@H](C)C(=O)N[C@@H]([C@@H](C)O)C(=O)N1)[C@@H](C)O)C(=O)N[C@@H](C)C(=O)N[C@@H](CCC(=O)O)C(=O)N[C@@H](Cc1ccccc1)C(=O)N[C@@H](CC(C)C)C(=O)N[C@@H](Cc1cnc[nH]1)C(=O)N[C@@H](CCCNC(=N)N)C(=O)N[C@@H](CO)C(=O)N[C@@H](CO)C(=O)N[C@@H](CC(N)=O)C(=O)N[C@@H](CC(N)=O)C(=O)N[C@@H](Cc1ccccc1)C(=O)NCC(=O)N[C@@H](C)C(=O)N1CCC[C@H]1C(=O)N[C@@H](CC(C)C)C(=O)N[C@@H](CO)C(=O)N[C@@H](CO)C(=O)N[C@H](C(=O)N[C@@H](CC(N)=O)C(=O)N[C@H](C(=O)NCC(=O)N[C@@H](CO)C(=O)N[C@@H](CC(N)=O)C(=O)N[C@H](C(=O)N[C@@H](Cc1ccc(O)cc1)C(N)=O)[C@@H](C)O)C(C)C)[C@@H](C)O [Example 6, N-alpha-[(S)-4-Carboxy-4-(19-carboxynonadecanoylamino)butyryl]-[His1,Glu14,His17,Arg18,Ala25,Pro26,Ser28,Ser29]-pramlintide] ({C20 diacid-γGlu}-HCNTATCATQRLAEFLHRSSNNFGAPLSSTNVGSNTY-NH2; disulfide 2-7)

— patent publication US8722849B2, “Polypeptides” (Novo Nordisk A/S, priority 2011, dated 2014)
